Experimental data published in patent US10287297B2, “Epoxyazulene derivatives useful for treating cancer and diabetes” (The United States of America, as represented by the …, priority 2015, dated 2019).

Key:
Type in all cases: cell-based
UO-31 = experiment: NCI 60 cell assay, renal UO-31; settings: Homo sapiens, 48 h; UO-31 (renal); drug exposure two days, SRB endpoint; read-out: GI-50 value
Description: (§1) Samples were tested in the standard National Cancer Institute 60-cell line protocol. First, they were tested against all 60 cell lines in a single final concentration of 10 micromolar. Then, they were separately tested in five 10-fold dilutions. The drug exposure was two days, with an SRB endpoint.

MOLT-4 = experiment: NCI 60 cell assay, leukemia MOLT-4; settings: Homo sapiens, 48 h; MOLT-4 (leukemia); drug exposure two days, SRB endpoint; read-out: GI-50 value
Description: as §1

SF-268 = experiment: NCI 60 cell assay, CNS SF-268; settings: Homo sapiens, 48 h; SF-268 (CNS); drug exposure two days, SRB endpoint; read-out: GI-50 value
Description: as §1

EKVX = experiment: NCI 60 cell assay, NSCLC EKVX; settings: Homo sapiens, 48 h, drug exposure two days, SRB endpoint, read-out: GI-50 value
Description: as §1

SK-MEL-28 = experiment: NCI 60 cell assay, melanoma SK-MEL-28; settings: Homo sapiens, 48 h; SK-MEL-28 (melanoma); drug exposure two days, SRB endpoint; read-out: GI-50 value
Description: as §1

UACC-257 = experiment: NCI 60 cell assay, melanoma UACC-257; settings: Homo sapiens, 48 h; UACC-257 (melanoma); drug exposure two days, SRB endpoint; read-out: GI-50 value
Description: as §1

TK-10 = experiment: NCI 60 cell assay, renal TK-10; settings: Homo sapiens, 48 h; TK-10 (renal); drug exposure two days, SRB endpoint; read-out: GI-50 value
Description: as §1

SK-MEL-2 = experiment: NCI 60 cell assay, melanoma SK-MEL-2; settings: Homo sapiens, 48 h; SK-MEL-2 (melanoma); drug exposure two days, SRB endpoint; read-out: GI-50 value
Description: as §1

U251 = experiment: NCI 60 cell assay, CNS U251; settings: Homo sapiens, U-251, 48 h, drug exposure two days, SRB endpoint, read-out: GI-50 value
Description: as §1

RXF 393 = experiment: NCI 60 cell assay, renal RXF 393; settings: Homo sapiens, 48 h; RXF 393 (renal); drug exposure two days, SRB endpoint; read-out: GI-50 value
Description: as §1

SNB-19 = experiment: NCI 60 cell assay, CNS SNB-19; settings: Homo sapiens, 48 h; SNB-19 (CNS); drug exposure two days, SRB endpoint; read-out: GI-50 value
Description: as §1

HCT-15 = experiment: NCI 60 cell assay, colon HCT-15; settings: Homo sapiens, 48 h; HCT-15 (colon); drug exposure two days, SRB endpoint; read-out: GI-50 value
Description: as §1

SF-295 = experiment: NCI 60 cell assay, CNS SF-295; settings: Homo sapiens, 48 h; SF-295 (CNS); drug exposure two days, SRB endpoint; read-out: GI-50 value
Description: as §1

A549/ATCC = experiment: NCI 60 cell assay, NSCLC A549/ATCC; settings: Homo sapiens, 48 h, drug exposure two days, SRB endpoint, read-out: GI-50 value
Description: as §1

PC-3 = experiment: NCI 60 cell assay, prostate PC-3; settings: Homo sapiens, 48 h; PC-3 (prostate); drug exposure two days, SRB endpoint; read-out: GI-50 value
Description: as §1

UACC-62 = experiment: NCI 60 cell assay, melanoma UACC-62; settings: Homo sapiens, 48 h; UACC-62 (melanoma); drug exposure two days, SRB endpoint; read-out: GI-50 value
Description: as §1

786-0 = experiment: NCI 60 cell assay, renal 786-0; settings: Homo sapiens, 48 h; 786-0 (renal); drug exposure two days, SRB endpoint; read-out: GI-50 value
Description: as §1

OVCAR-4 = experiment: NCI 60 cell assay, ovarian OVCAR-4; settings: Homo sapiens, 48 h; OVCAR-4 (ovarian); drug exposure two days, SRB endpoint; read-out: GI-50 value
Description: as §1

ACHN = experiment: NCI 60 cell assay, renal ACHN; settings: Homo sapiens, 48 h, drug exposure two days, SRB endpoint, read-out: GI-50 value
Description: as §1

CAKI-1 = experiment: NCI 60 cell assay, renal CAKI-1; settings: Homo sapiens, 48 h; CAKI-1 (renal); drug exposure two days, SRB endpoint; read-out: GI-50 value
Description: as §1

SK-MEL-5 = experiment: NCI 60 cell assay, melanoma SK-MEL-5; settings: Homo sapiens, 48 h; SK-MEL-5 (melanoma); drug exposure two days, SRB endpoint; read-out: GI-50 value
Description: as §1

NCI-H522 = experiment: NCI 60 cell assay, NSCLC NCI-H522; settings: Homo sapiens, 48 h, drug exposure two days, SRB endpoint, read-out: GI-50 value
Description: as §1

K-562 = experiment: NCI 60 cell assay, leukemia K-562; settings: Homo sapiens, K562, 48 h; K-562 (leukemia); drug exposure two days, SRB endpoint; read-out: GI-50 value
Description: as §1

OVCAR-8 = experiment: NCI 60 cell assay, ovarian OVCAR-8; settings: Homo sapiens, 48 h; OVCAR-8 (ovarian); drug exposure two days, SRB endpoint; read-out: GI-50 value
Description: as §1

SNB-75 = experiment: NCI 60 cell assay, CNS SNB-75; settings: Homo sapiens, 48 h; SNB-75 (CNS); drug exposure two days, SRB endpoint; read-out: GI-50 value
Description: as §1

OVCAR-5 = experiment: NCI 60 cell assay, ovarian OVCAR-5; settings: Homo sapiens, 48 h; OVCAR-5 (ovarian); drug exposure two days, SRB endpoint; read-out: GI-50 value
Description: as §1

## CC1=C2[C@@H](CC1)[C@]1(C)O[C@@](C(C)C)(C[C@H]1OC(=O)[C@H](C)O)[C@H]2OC(=O)C=Cc1ccccc1 [(Il), (3aR,4S,5R,7R,8S)-5-(((S)-2-hydroxypropanoyl)oxy)-7-isopropyl-1,4-dimethyl-2,3,3a,4,5,6,7,8-octahydro-4,7-epoxyazulen-8-yl cinnamate]
UO-31
  GI50: 710 nM
MOLT-4
  GI50: 10 µM
SF-268
  GI50: 1300 nM
EKVX
  GI50: 10 µM
SK-MEL-28
  GI50: 16 µM
UACC-257
  GI50: 15 µM
TK-10
  GI50: 17 µM
SK-MEL-2
  GI50: 15 µM
U251
  GI50: 14 µM
RXF 393
  GI50: 45 nM
SNB-19
  GI50: 18 µM
HCT-15
  GI50: 12 µM
SF-295
  GI50: 11 µM
A549/ATCC
  GI50: 13 µM
PC-3
  GI50: 4 µM
UACC-62
  GI50: 13 µM
786-0
  GI50: 13 µM
OVCAR-4
  GI50: 12 µM
ACHN
  GI50: 90 nM
CAKI-1
  GI50: 7.2 µM
SK-MEL-5
  GI50: 13 µM
NCI-H522
  GI50: 13 µM
K-562
  GI50: 15 µM
OVCAR-8
  GI50: 350 nM
SNB-75
  GI50: 24 µM
OVCAR-5
  GI50: 18 µM

## CC(=O)O[C@@H]1C[C@]2(C(C)C)O[C@@]1(C)[C@@H]1CCC(C)=C1[C@@H]2OC(=O)C=Cc1ccccc1 [(Im), (3aR,4S,5R,7R,8S)-5-acetoxy-7-isopropyl-1,4-dimethyl-2,3,3a,4,5,6,7,8-octahydro-4,7-epoxyazulen-8-yl cinnamate]
UO-31
  GI50: 20000 nM
MOLT-4
  GI50: 27 µM
SF-268
  GI50: 35000 nM
EKVX
  GI50: 20 µM
SK-MEL-28
  GI50: 69 µM
UACC-257
  GI50: 28 µM
TK-10
  GI50: 93 µM
SK-MEL-2
  GI50: 100 µM
U251
  GI50: 48 µM
RXF 393
  GI50: 8900 nM
SNB-19
  GI50: 85 µM
HCT-15
  GI50: 32 µM
SF-295
  GI50: 39 µM
A549/ATCC
  GI50: 47 µM
PC-3
  GI50: 8 µM
UACC-62
  GI50: 26 µM
786-0
  GI50: 85 µM
OVCAR-4
  GI50: 11 µM
ACHN
  GI50: 4500 nM
CAKI-1
  GI50: 13 µM
SK-MEL-5
  GI50: 22 µM
NCI-H522
  GI50: 21 µM
K-562
  GI50: 34 µM
OVCAR-8
  GI50: 9000 nM
SNB-75
  GI50: 28 µM
OVCAR-5
  GI50: 100 µM

## CC1=C2[C@@H](CC1)[C@]1(C)O[C@@](C3CCCCC3)(C[C@H]1OC(=O)CO)[C@H]2OC(=O)C=Cc1ccccc1 [(Iq), (3aR,4S,5R,7R,8S)-7-cyclohexyl-5-(2-hydroxyacetoxy)-1,4-dimethyl-2,3,3a,4,5,6,7,8-octahydro-4,7-epoxyazulen-8-yl cinnamate]
UO-31
  GI50: 460 nM
MOLT-4
  GI50: 12 µM
SF-268
  GI50: 700 nM
EKVX
  GI50: 11 µM
SK-MEL-28
  GI50: 17 µM
UACC-257
  GI50: 14 µM
TK-10
  GI50: 17 µM
SK-MEL-2
  GI50: 17 µM
U251
  GI50: 13 µM
RXF 393
  GI50: 25 nM
SNB-19
  GI50: 17 µM
HCT-15
  GI50: 10 µM
SF-295
  GI50: 12 µM
A549/ATCC
  GI50: 11 µM
PC-3
  GI50: 12 µM
UACC-62
  GI50: 15 µM
786-0
  GI50: 13 µM
OVCAR-4
  GI50: 15 µM
ACHN
  GI50: 35 nM
CAKI-1
  GI50: 10 µM
SK-MEL-5
  GI50: 14 µM
NCI-H522
  GI50: 15 µM
K-562
  GI50: 13 µM
OVCAR-8
  GI50: 100 nM
SNB-75
  GI50: 14 µM
OVCAR-5
  GI50: 19 µM
